The values that follow come from PMC10891539, “Plant Extracts and Phytochemicals from the Asteraceae Family with Antiviral Properties” (Molecules, 2024).

Data set [1] relates to DENV-2. In words: Antiviral activity, virus yield inhibition assay (plaque assay) against DENV-2 in Vero cells. The format is cell-based, dengue virus (DENV-2 strain NGC). The note with it: for activity against DENV-2 (in words): DENV-2 in Vero cells. The procedure: Figure 3 Antiviral activity of dichloromethane (A) and methanolic extracts (B) and against DENV-2 in Vero cells. Cells were infected with DENV-2 (m.o.i. 0.1 PFU/cell) and, after 1 h adsorption at 37 °C, were treated with medium containing different dilutions of the dichloromethane extracts or vehicle. After 48h of infection, viral yield was determined via plaque assay. […] Results are expressed as the mean values ± standard deviation (SD).
Figure 4 Antiviral activity of pure compounds against DENV-2 in Vero cells. Cells were infected with DENV-2 (m.o.i. 0.1 PFU/cell) and, after 1 h adsorption at 37 °C, were treated with medium containing different dilutions of the pure compounds or vehicle (dimethyl sulfoxide). After 48 h of infection, viral yield was determined via plaque assay. Results are expressed as the mean values ± standard deviation (SD).
(§1) Vero (African green monkey kidney, ATCC CCL-81) cells were grown in Eagle’s minimum essential medium (MEM, Gibco™ Thermo Fisher Scientific, Waltham, MA, USA) supplemented with 5% heat-inactivated newborn bovine serum (NBS, Gibco™ Thermo Fisher Scientific, Carlsbad, CA, USA) and 1.5 g/L of sodium bicarbonate in a 5% CO2 atmosphere. For the maintenance medium (MM), the serum concentration was reduced to 1.5%. The C6/36 HT mosquito cell line from Aedes albopictus (ATCC CRL-1660), adapted to grow at 33 °C, was cultured in L-15 Medium (Leibovitz) supplemented with 0.3% tryptose phosphate broth, 0.02% glutamine, 1% MEM non-essential amino acids solution, and 5% FBS. The original stock of DENV-2 strain NGC was prepared in C6/36 cells and titrated via plaque formation in Vero cells.
Antiviral activity was evaluated with a virus yield inhibition assay. Cells grown in 24-well microplates were infected with DENV-2 at a multiplicity of infection (m.o.i.) of 0.1 PFU/cell, and after 1 h adsorption at 37 °C, the unadsorbed virus was removed by washing with PBS and refed with MM containing different two-fold dilutions of each compound or vehicle (DMSO or methanol). […] The concentration of the solvent used for the control was the maximum present in the highest concentration of the extract or compound evaluated. After 48 h of infection, supernatants were collected and cooled down, and serial dilutions were prepared to infect Vero cell monolayers to measure virus yield via the PFU method. After viral adsorption for 1 h at 37 °C, the virus excess was removed; MM supplemented with 0.7% methylcellulose was added and cells were incubated for 1 week at 37 °C in a 5% CO2 incubator. Finally, cell monolayers were fixed with 10% formaldehyde, washed, and stained with a 1% solution of crystal violet, and PFU were counted. Inhibition values (% respect to viral control): The effective concentration 50% (EC50), as the concentration required to reduce virus yield by 50% in the compound-treated cultures, was calculated via non-linear regression using GraphPad Prism (v9.0) software, compared with viral control treated with vehicle (DMSO or methanol), and presented as the mean ± SD obtained from three independent experiments.

Data set [2] can be described thus: Cytotoxicity assay (MTT) on Vero cells. The data set is classed as cell-based. Particulars: African green monkey. The procedure: as §1
Confluent cell monolayers in 96-well plates were exposed for 48 h to serial two-fold compound dilutions, four wells for each concentration, and then viability was tested. The concentration range evaluated for extracts was 1–250 µg/mL, and for pure compounds, it was 1–200 µM or 1–100 µM depending on the phytochemical. […] Cell cultures treated with 0.01% concentration of vehicle (DMSO or methanol) were taken as cell control. Cell viability determinations were performed by the 3-(4,5-dimethylthiazol-2-yl)-2,5-diphenyl tetrazolium bromide (MTT, Sigma-Aldrich, St. Louis, MO, USA) method, adding 10 µL of MM containing MTT reagent (final concentration 0.5 mg/mL) to each well. After 2 h of incubation at 37 °C, the supernatants were removed, 100 µL of ethanol was added per well to solubilize the formazan crystals, and absorbance was measured at 595 nm. Viability values (% respect to cell control): The cytotoxic concentration 50% (CC50) was calculated via non-linear regression using GraphPad Prism (v9.0.) software as the compound concentration required to reduce the MTT signal by 50% compared to cell controls treated with vehicle (DMSO or methanol), and it is presented as the mean ± standard deviation (SD) obtained from three independent experiments.

The subject of data set [3] is human cancer cell lines. Details: method as in PMID 32805622. Particulars: cited from earlier work.
The mark [4] stands for this setting: Dengue virus, DENV2, Vero, 48 h, pure phytochemicals, concentration reducing DENV-2 yield by 50%, Vero cells, m.o.i. 0.1, 48 h, mean of three ± SD.
Where [5] appears, read: Vero cells (confluent monolayers), pure phytochemicals, Vero cells, 48 h, MTT, mean of three determinations ± SD, read-out: CC50.
The mark [6] stands for this setting: pure phytochemicals, concentration reducing DENV-2 yield by 50%, Vero cells, m.o.i. 0.1, 48 h, mean of three ± SD.
Where [7] appears, read: pure phytochemicals, Vero cells, 48 h, MTT, mean of three determinations ± SD, read-out: CC50.

Where two headings read alike, the source gives them in different places.

The molecule `O=C1C[C@@H](c2ccc(O)c(O)c2)Oc2cc(O)cc(O)c21` [Compound 12, eryodictiol] had an EC50 in data set [1] (setting [4]) of more than 2 µM. In addition, the CC50 at 48 h in data set [2] (setting [5]) was more than 100 µM.
Turning to macrocephalide A, the “50% cell growth inhibitions” value in data set [3] is reported as 0.576 µM.
On to `COc1cc(-c2cc(=O)c3c(O)c(OC)c(O)cc3o2)ccc1O` [Compound 11, jaceosidin], for which the “activity against DENV-2 (in words)” value in data set [1] was “inactive”. The 50% effective concentration (EC50) in data set [1] (setting [4]) is more than 2 µM. Besides, in data set [2] (setting [5]), the CC50 at 48 h was more than 100 µM.
Turning to `COc1c(O)cc2oc(-c3ccc(O)c(O)c3)cc(=O)c2c1O` [Compound 10, nepetin], in data set [1], the “activity against DENV-2 (in words)” value was “inactive”. In addition, in data set [1] (setting [4]), the EC50 is more than 2 µM. Moreover, the CC50 at 48 h in data set [2] is more than 100 µM.
In the case of `C=C1C(=O)O[C@@H]2/C=C(\C)[C@@H](O)C/C=C(\C)C[C@@H](OC(=O)/C(=C/CO)COC(C)=O)[C@@H]12` [Compound 7, santhemoidin C], the EC50 in data set [1] (setting [4]) was determined as 3.1 µM; in data set [1] (setting [6]), 3.12 ± 1.39 µM. Besides, in data set [2] (setting [5]), the CC50 at 48 h is 21 ± 3.65 µM.
Consider `COc1ccc(-c2cc(=O)c3c(O)c(OC)c(OC)cc3o2)cc1OC` [Compound 14, 5-demethylsinensetin], for which, in data set [1] (setting [4]), the EC50 is more than 2 µM. In addition, the CC50 at 48 h in data set [2] (setting [5]) worked out at 184 ± 27.8 µM.
Take `C=C1C(=O)O[C@@H]2/C=C(\C)CC/C=C(\C)C[C@@H](OC(=O)/C(=C/CO)CO)[C@@H]12` [Compound 2, eupatoriopicrin]: the EC50 in data set [1] (Dengue virus, DENV2, pure phytochemicals, concentration reducing DENV-2 yield by 50%, Vero cells, m.o.i. 0.1, 48 h, mean of three ± SD, read-out: EC50) was more than 2 µM. Moreover, the CC50 in data set [2] (setting [7]) turned out to be 10.8 ± 0.88 µM.
With `C=C1CC[C@H]2C(=C)C(=O)O[C@@H]2[C@H]2C(C)=CC(=O)[C@@H]12` [Compound 6, 2-oxo-8-deoxyligustrin], the half-maximal effective concentration (EC50) in data set [1] (setting [4]) is 3.7 µM; in data set [1] (setting [6]) it was 3.72 ± 0.28 µM. Besides, the CC50 at 48 h in data set [2] (setting [5]) is 21.8 ± 4.15 µM.
Regarding `COc1ccc(-c2cc(=O)c3c(O)c(OC)c(OC)cc3o2)cc1O` [Compound 13, eupatorin], the EC50 in data set [1] (setting [4]) was more than 2 µM. Further, in data set [2] (setting [7]), the CC50 was more than 200 µM.
In the case of `C=C1C(=O)O[C@@H]2[C@H]3C(C)=CC[C@H]3C(=C)C[C@@H](OC(=O)/C(=C/CO)CO)[C@@H]12` [Compound 3, eupahakonenin B], in data set [1] (setting [4]), the EC50 is more than 2 µM. Moreover, the CC50 at 48 h in data set [2] (setting [5]) worked out at 11.2 ± 0.36 µM.
In data set [1] (Dengue virus, DENV2, Vero, 48 h), `C=C1C(=O)O[C@H]2C[C@]3(C)O[C@@H]3[C@@H]3O[C@@H]3C3=C[C@@H](OC3=O)[C@H]12` [Compound 1, mikanolide] displayed an EC50 of more than 2 µM. In data set [2], this molecule came in with a CC50 of 6.69 ± 0.49 µM.
Take `C=C(C)c1cc2cc(C(C)=O)c(O)cc2o1` [Compound 8, euparin]: the EC50 was 6.8 µM in data set [1] (setting [4]) and 6.81 ± 0.2 µM in data set [1] (setting [6]). Also, in data set [2] (setting [7]), the CC50 at 48 h is more than 500 µM.
As for `C=C1C(=O)OC2C1CCC(=C)C1CC3OC3(C)C12` (centres unmarked) [Compound 5, estafietin], in data set [1] (setting [4]), the EC50 was more than 2 µM. Moreover, in data set [2] (setting [5]), the CC50 at 48 h was found to be 23.5 ± 0.99 µM.
macrocephalide B: the “50% cell growth inhibitions” value in data set [3] was 6.37 µM.
In data set [1] (setting [4]), `C=C1C(=O)O[C@@H]2/C=C(\CO)CC/C=C(\COC(C)=O)C[C@H](OC(C)=O)[C@@H]12` [Compound 4, minimolide] yielded an EC50 of more than 2 µM. The CC50 at 48 h in data set [2] (setting [5]) was 10.6 ± 0.55 µM.
`COc1cc(-c2oc3cc(O)c(OC)c(O)c3c(=O)c2OC)ccc1O` [Compound 9, jaceidin] gave an EC50 in data set [1] (setting [4]) of more than 2 µM. In addition, in data set [2] (setting [5]), the CC50 at 48 h was more than 100 µM.

As a reminder, the EC50 is the concentration at which the effect is half-maximal. As usually defined, the CC50 is the concentration that lowers cell viability or growth by half.
